# Measurements: patent US20100048657A1, “CONTROL OF MALIGNANT CELLS PROLIFERATION THROUGH THE INHIBITION OF CASEIN KINASE 2” (CLEVELAND STATE UNIVERSITY, priority 2006, published 2010)
# Key:
# Format in all cases: cell-based, human
# [1] = test system: αIIbβ3 integrin expression on MEG-01 cells; test: RPE-CD41a flow cytometric immunophenotyping (maturation)
# Source text: CD41a is the antigen for αIIbβ3 complex and it is found on platelets and platelet precursors, including MEG-1 cell line (Ogura et al., 1985; Zunino et al., 2001). It acts as a receptor for fibrinogen, von Willebrand factor, fibronectin, and vitronectin, and it mediates platelet adhesion and aggregation. αIIbβ3 complex is a marker of differentiation for megakaryocytes (as an increase in the fluorescence of stained cells corresponds to more αIIbβ3 receptor expression and differentiation towards platelets production) and it is simply a marker for the platelets. CD41a is conjugated with R-Phytocoerthrin (RPE), in order to be used in flow cytometry experiments. The staining protocol provided by BD Biosciences was followed. Briefly, cells were washed and resuspended in 1×PBS with 0.1% FBS, 0.01% NaN3, and 0.22 μm filtered buffer. Cells were counted and adjusted to be 10^6 cells/ml and 20 μl of RPE-CD41a was used for 180 μl cell suspension.
# RPE conjugated stained cells were collected on FL2H channel and gating on populations was done on FSC and SSC logarithmic modes. […]
# Regarding FIGS. 16-20, maturation (differentiation) of MEG-01 cells is described. […] Control untreated unstained—plot A, control untreated stained—plot B, 10 μM DMAT—plot C, 25 μM TBB—plot D, 1 nM PMA treatments—plot E. FIG. 18 represents total percentage relative fluorescence for RPE-CD41a immunophenotyping. […]
# [2] = test system: fibrinogen receptor expression on MEG-01 cells; test: Fibrinogen-Alexa Fluor 488 binding to MEG-01 cells; conditions: 10 μM
# Protocol: RPE conjugated stained cells were collected on FL2H channel and gating on populations was done on FSC and SSC logarithmic modes. The unstained control signal was subtracted from the stained cells signal, in order to measure the staining of the cells without background noise. Similar staining was done for Fibrinogen-Alexa Fluor 488 (300 nM). Cells were collected on FL1H channel and gating on the interest population was done on FSC and SSC logarithmic modes. Again, the unstained control signal was subtracted from the stained cells signal, in order to measure the staining of the cells without background noise.
# Regarding FIGS. 16-20, maturation (differentiation) of MEG-01 cells is described. In FIG. 16, RPECD41a (αIIbβ3 expression) staining for DMAT treated cells (gate MEG-01) is depicted, with control untreated unstained—plot A, Control untreated stained (RPE-CD41a)—plot B, DMAT 10 μM—plot D, DMAT 15 μM—plot C, DMAT 20 μM—plot E. For FIG. 17, RPECD41a (αIIbβ3 expression) staining for DMAT, TBB and PMA (gate MEG-01) is shown. Control untreated unstained—plot A, control untreated stained—plot B, 10 μM DMAT—plot C, 25 μM TBB—plot D, 1 nM PMA treatments—plot E. FIG. 18 represents total percentage relative fluorescence for RPE-CD41a immunophenotyping. […]
# [3] = test system: MEG-01 cells; test: DNA content assay with PI and RNAase A; conditions: 10 μM, 4 days
compound,measurement,setting,value
"CN(C)c1nc2c(Br)c(Br)c(Br)c(Br)c2[nH]1 [DMAT, 2-dimethylamino-4,5,6,7-tetrabromo-1H-benzimidazole]","maturation level (RPE-CD41a, αIIbβ3 expression)",[1]; 10 μM,very significant maturation levels versus control untreated
same,"maturation level (RPE-CD41a, αIIbβ3 expression)","[1]; 20 μM, compared with 10 μM",slight increase in the maturation level
same,fibrinogen-Alexa Fluor 488 binding to MEG-01 cells versus untreated controls,[2],bind significantly better fibrinogen-Alexa Fluor 488
same,ploidy (DNA content),[3],higher than 2N
